# In ChEMBL document CHEMBL1201862, “PubChem BioAssay data set” (2004):
#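 Compound exposure: 48 hours, 5 concentrations, 96-well plates. Here, GI50 denotes the concentration required for 50% inhibition of growth.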 The source made the active and inactive calls. Cut-off read from the data, not from the text of the source: active = GI50 up to about 1.1 µM and inactive = higher.
# Key:
# Assay in all cases: NCI anticancer screen, dose series, 48 h
# 786-0 = tested on: 786-0
# A498 = tested on: A498
# A549 = tested on: A549
# ACHN = tested on: ACHN
# CAKI-1 = tested on: CAKI-1
# CCRF-CEM = tested on: CCRF-CEM
# COLO 205 = tested on: COLO 205
# DLD-1 = tested on: DLD-1
# DMS-114 = tested on: DMS-114
# DMS-273 = tested on: DMS-273
# EKVX = tested on: EKVX
# HCC 2998 = tested on: HCC 2998
# HCT-116 = tested on: HCT-116
# HCT-15 = tested on: HCT-15
# HL-60 = tested on: HL-60
# HOP-18 = tested on: HOP-18
# HOP-62 = tested on: HOP-62
# HOP-92 = tested on: HOP-92
# HT-29 = tested on: HT-29
# IGROV-1 = tested on: IGROV-1
# K562 = tested on: K562
# KM-20L2 = tested on: KM-20L2
# KM12 = tested on: KM12
# LOX IMVI = tested on: LOX IMVI
# LXFL 529 = tested on: LXFL 529
# M14 = tested on: M14
# M19-MEL = tested on: M19-MEL
# Malme-3M = tested on: Malme-3M
# NCI-H23 = tested on: NCI-H23
# NCI-H460 = tested on: NCI-H460
# NCI-H522 = tested on: NCI-H522
# OVCAR-3 = tested on: OVCAR-3
# OVCAR-5 = tested on: OVCAR-5
# OVCAR-8 = tested on: OVCAR-8
# RPMI-8226 = tested on: RPMI-8226
# SF-268 = tested on: SF-268
# SF-295 = tested on: SF-295
# SF-539 = tested on: SF-539
# SK-MEL-28 = tested on: SK-MEL-28
# SK-MEL-2 = tested on: SK-MEL-2
# SK-MEL-5 = tested on: SK-MEL-5
# SK-OV-3 = tested on: SK-OV-3
# SN12C = tested on: SN12C
# SNB-19 = tested on: SNB-19
# SNB-75 = tested on: SNB-75
# SNB-78 = tested on: SNB-78
# SW-620 = tested on: SW-620
# TK-10 = tested on: TK-10
# U-251 = tested on: U-251
# UACC-257 = tested on: UACC-257
# UACC-62 = tested on: UACC-62
# UO-31 = tested on: UO-31
# MOLT-4 = tested on: MOLT-4
# NCI-H226 = tested on: NCI-H226
# OVCAR-4 = tested on: OVCAR-4
# RXF 393 = tested on: RXF 393
# SR = tested on: SR
structure (smiles),measurement,setting,value
O=C1Cc2nc(CO)c(CO)c(CO)c2CO1,GI50,786-0,> 100 µM (inactive)
same,GI50,A498,> 100 µM (inactive)
same,GI50,A549,> 100 µM (inactive)
same,GI50,ACHN,> 100 µM (inactive)
same,GI50,CAKI-1,> 100 µM (inactive)
same,GI50,CCRF-CEM,> 100 µM (inactive)
same,GI50,COLO 205,> 100 µM (inactive)
same,GI50,DLD-1,> 100 µM (inactive)
same,GI50,DMS-114,> 100 µM (inactive)
same,GI50,DMS-273,> 100 µM (inactive)
same,GI50,EKVX,> 100 µM (inactive)
same,GI50,HCC 2998,> 100 µM (inactive)
same,GI50,HCT-116,> 100 µM (inactive)
same,GI50,HCT-15,> 100 µM
same,GI50,HL-60,> 100 µM (inactive)
same,GI50,HOP-18,> 100 µM (inactive)
same,GI50,HOP-62,> 100 µM (inactive)
same,GI50,HOP-92,> 100 µM (inactive)
same,GI50,HT-29,> 100 µM (inactive)
same,GI50,IGROV-1,> 100 µM (inactive)
same,GI50,K562,> 100 µM (inactive)
same,GI50,KM-20L2,> 100 µM (inactive)
same,GI50,KM12,> 100 µM (inactive)
same,GI50,LOX IMVI,> 100 µM (inactive)
same,GI50,LXFL 529,> 100 µM (inactive)
same,GI50,M14,> 100 µM (inactive)
same,GI50,M19-MEL,> 100 µM (inactive)
same,GI50,Malme-3M,> 100 µM (inactive)
same,GI50,NCI-H23,> 100 µM (inactive)
same,GI50,NCI-H460,> 100 µM (inactive)
same,GI50,NCI-H522,> 100 µM (inactive)
same,GI50,OVCAR-3,> 100 µM (inactive)
same,GI50,OVCAR-5,> 100 µM (inactive)
same,GI50,OVCAR-8,> 100 µM (inactive)
same,GI50,RPMI-8226,> 100 µM (inactive)
same,GI50,SF-268,> 100 µM (inactive)
same,GI50,SF-295,> 100 µM (inactive)
same,GI50,SF-539,> 100 µM (inactive)
same,GI50,SK-MEL-28,> 100 µM (inactive)
same,GI50,SK-MEL-2,> 100 µM (inactive)
same,GI50,SK-MEL-5,> 100 µM (inactive)
same,GI50,SK-OV-3,> 100 µM (inactive)
same,GI50,SN12C,> 100 µM (inactive)
same,GI50,SNB-19,> 100 µM (inactive)
same,GI50,SNB-75,> 100 µM (inactive)
same,GI50,SNB-78,> 100 µM (inactive)
same,GI50,SW-620,> 100 µM (inactive)
same,GI50,TK-10,> 100 µM (inactive)
same,GI50,U-251,> 100 µM (inactive)
same,GI50,UACC-257,> 100 µM (inactive)
same,GI50,UACC-62,> 100 µM (inactive)
same,GI50,UO-31,> 100 µM (inactive)
CC(=O)c1ccc(N2C(=O)C3c4[nH]c5ccccc5c4C4CCC(C(C)(C)C)CC4C3C2=O)cc1 (stereo unspecified),GI50,786-0,18.6 µM (inactive)
same,GI50,A498,22.5 µM (inactive)
same,GI50,A549,19.6 µM (inactive)
same,GI50,ACHN,28.3 µM (inactive)
same,GI50,CCRF-CEM,36.3 µM (inactive)
same,GI50,COLO 205,15.2 µM (inactive)
same,GI50,DLD-1,33.2 µM (inactive)
same,GI50,DMS-114,23.1 µM (inactive)
same,GI50,DMS-273,17.7 µM (inactive)
same,GI50,EKVX,30.5 µM (inactive)
same,GI50,HCC 2998,20.7 µM (inactive)
same,GI50,HCT-116,16.6 µM (inactive)
same,GI50,HCT-15,29.3 µM
same,GI50,HL-60,27.1 µM (inactive)
same,GI50,HOP-18,91.6 µM (inactive)
same,GI50,HOP-62,19.5 µM (inactive)
same,GI50,HOP-92,20.8 µM (inactive)
same,GI50,HT-29,17.3 µM (inactive)
same,GI50,IGROV-1,40.6 µM (inactive)
same,GI50,K562,35.7 µM (inactive)
same,GI50,KM-20L2,18.7 µM (inactive)
same,GI50,LXFL 529,29.3 µM (inactive)
same,GI50,M14,23.9 µM (inactive)
same,GI50,M19-MEL,19.2 µM (inactive)
same,GI50,MOLT-4,30.1 µM (inactive)
same,GI50,Malme-3M,16.7 µM (inactive)
same,GI50,NCI-H226,18.7 µM (inactive)
same,GI50,NCI-H23,19.2 µM (inactive)
same,GI50,NCI-H522,24.4 µM (inactive)
same,GI50,OVCAR-4,30.9 µM (inactive)
same,GI50,OVCAR-8,22.4 µM (inactive)
same,GI50,RPMI-8226,23.3 µM (inactive)
same,GI50,RXF 393,17.9 µM (inactive)
same,GI50,SF-268,17.3 µM (inactive)
same,GI50,SF-295,28.7 µM (inactive)
same,GI50,SF-539,20.3 µM (inactive)
same,GI50,SK-MEL-28,28.8 µM (inactive)
same,GI50,SK-MEL-5,25.6 µM (inactive)
same,GI50,SK-OV-3,48.6 µM (inactive)
same,GI50,SN12C,18.5 µM (inactive)
same,GI50,SNB-19,62.2 µM (inactive)
same,GI50,SNB-75,22.6 µM (inactive)
same,GI50,SNB-78,19.6 µM (inactive)
same,GI50,SR,26.7 µM (inactive)
same,GI50,SW-620,21.7 µM (inactive)
same,GI50,U-251,19.5 µM (inactive)
same,GI50,UACC-257,35.2 µM (inactive)
same,GI50,UACC-62,21.1 µM (inactive)
same,GI50,UO-31,43.5 µM (inactive)
